For assay [1], the system named is RT-112. The assay can be described thus: Cytotoxicity against NQO2 expressing human RT112 cells by MTT assay. Type of assay: functional, cell-based. (Tetrazolium dyes change colour on reduction, which living cells bring about.)
In assay [2] the target is NAD(P)H dehydrogenase [quinone] 1 (Homo sapiens) (UniProt P15559). Put plainly: Activity of recombinant human NQO1 assessed as specific activity.
Assay [3] has as its system RT-112. Put plainly: Cytotoxicity against NQO2 expressing human RT112 cells in presence of NRH cofactor by MTT assay. Format: functional, cell-based.
The test system of assay [4] is RT-112. Put plainly: Selectivity ratio of IC50 for RT112 cells in presence of cofactor NRH to IC50 for RT112 cells. Type of assay: functional, Homo sapiens.
The subject of another assay is NCI-H460. The assay can be described thus: Cytotoxicity against high NQO1 protein expressing human H460 cells by MTT assay. Type of assay: functional, cell-based.
Assay [5] deals with BE. Put plainly: Cytotoxicity against low NQO1 protein expressing human BE cells by MTT assay. Type of assay: functional, cell-based.
Assay [6] has as its system BE. The assay can be described thus: Selectivity ratio of IC50 for human H460 cells IC50 for human BE cells. Type of assay: functional.

Where a name gives a salt, the structure may show the parent alone.

Sequence of NAD(P)H dehydrogenase [quinone] 1 (Homo sapiens) (P15559 whole entry): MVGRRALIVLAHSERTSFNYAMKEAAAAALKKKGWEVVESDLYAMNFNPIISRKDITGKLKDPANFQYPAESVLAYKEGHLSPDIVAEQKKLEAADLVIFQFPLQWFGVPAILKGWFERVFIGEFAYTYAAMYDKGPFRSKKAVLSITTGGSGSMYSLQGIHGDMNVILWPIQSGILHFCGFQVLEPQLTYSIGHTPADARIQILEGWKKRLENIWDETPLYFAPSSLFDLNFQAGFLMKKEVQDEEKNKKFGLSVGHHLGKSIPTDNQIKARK

For `C[n+]1c2ccc(F)cc2cc2[n-]c3c([N+](=O)[O-])cccc3c21`, the IC50 in the assay with RT-112 [1] turned out to be 1350 nM; with RT-112 [3] it was 1100 nM. Further, the Activity in assay [2] came out at 2.72 µmol/min/mg.
As for `C[n+]1c2ccc(Cl)cc2cc2[n-]c3c([N+](=O)[O-])cccc3c21`, the IC50 in the assay with RT-112 [1] was 880 nM; in the assay with RT-112 [3], 820 nM.
Turning to `C[n+]1c2ccccc2cc2[n-]c3cc(Cl)c([N+](=O)[O-])cc3c21`, the IC50 in the assay with RT-112 [1] is 1030 nM; in the assay with RT-112 [3], 1080 nM.
On to `NC(=O)c1cc(N2CC2)c([N+](=O)[O-])cc1[N+](=O)[O-]` [TRETAZICAR], for which the “Ratio IC50” value in the assay on RT-112 [4] stood at 586. Moreover, the IC50 with RT-112 [1] worked out at 88800 nM; in the assay on RT-112 [3] it was 150 nM. Also, the Activity in assay [2] worked out at 3.56 µmol/min/mg.
Consider `C[n+]1c2ccccc2cc2[n-]c3ccccc3c21` [CRYPTOLEPINE HYDROCHLORIDE], for which the IC50 stood at 820 nM in the assay with RT-112 [1], 1450 nM in the assay with NCI-H460, 800 nM in the assay with RT-112 [3] and 1280 nM with BE [5]. In addition, the Activity in assay [2] stood at 4.53 µmol/min/mg.
As for `C[n+]1c2ccccc2cc2[n-]c3c([N+](=O)[O-])cc(Br)cc3c21`, the IC50 with RT-112 [1] came to 240 nM; in the assay on NCI-H460 it was 590 nM; in the assay on RT-112 [3] it was 150 nM; in the assay on BE [5] it was 780 nM. Also, the Activity in assay [2] turned out to be 8.66 µmol/min/mg.
On to `C[n+]1c2ccc(F)cc2cc2[n-]c3c([N+](=O)[O-])cc([N+](=O)[O-])cc3c21`, for which the IC50 with RT-112 [1] was 450 nM; in the assay with RT-112 [3], 190 nM. Besides, the Activity in assay [2] was found to be 2.96 µmol/min/mg.
On to `C[n+]1c2ccccc2cc2[n-]c3c([N+](=O)[O-])c(Cl)ccc3c21`, for which the IC50 stood at 760 nM in the assay with RT-112 [1], 1880 nM in the assay on NCI-H460, 640 nM in the assay with RT-112 [3] and 1480 nM in the assay with BE [5]. For the same molecule, in assay [2], the Activity was determined as 26.7 µmol/min/mg.
As for `C[n+]1c2ccc(Cl)cc2cc2[nH]c3ccc([N+](=O)[O-])cc3c21`, the IC50 was 410 nM in the assay with RT-112 [1], 460 nM with NCI-H460, 280 nM in the assay on RT-112 [3] and 950 nM with BE [5]. In assay [2], the Activity is 18.9 µmol/min/mg.
Consider `C[n+]1c2ccc(F)cc2cc2[n-]c3ccc([N+](=O)[O-])cc3c21`, for which the IC50 was 2130 nM in the assay on RT-112 [1] and 1670 nM with RT-112 [3].
On the same counts, the results for `C[n+]1c2ccc(Cl)cc2cc2[n-]c3c([N+](=O)[O-])cc([N+](=O)[O-])cc3c21` are 290 nM and 230 nM.
With `C[n+]1c2ccccc2cc2[n-]c3cc([N+](=O)[O-])c(Br)cc3c21`, the IC50 with RT-112 [1] worked out at 360 nM; in the assay with NCI-H460 it was 380 nM; in the assay with RT-112 [3], 320 nM; in the assay with BE [5], 580 nM. Also, the Activity in assay [2] was determined as 13.9 µmol/min/mg.
On to `Cn1c(/C=C/CO)c(CO)c2c1C(=O)C=C(N1CC1)C2=O` [APAZIQUONE], for which the IC50 in the assay with NCI-H460 was found to be 5.9 nM; in the assay with BE [5], 600 nM. For the same molecule, the “Ratio IC50” value in the assay with BE [6] worked out at 100. Also, in assay [2], the Activity came out at 79.8 µmol/min/mg.

A word on the IC50: it is the midpoint of a concentration-inhibition curve.

These data come from ChEMBL document CHEMBL1149672, “Synthesis of cryptolepine analogues as potential bioreducible anticancer agents” (Bioorg Med Chem, 2007).
